Reference: patent US10233157B2, “SIK inhibitor for use in a method of treating an inflammatory and/or immune disorder” (Dana-Farber Cancer Institute, Inc., priority 2012, dated 2019)

Columns and labels:
Assay type in all cases: cell-based, mouse
LKB1−/− macrophages = test: Cytokine secretion in LKB1−/− macrophages
Source text: FIGS. 9A to 9I. Genetic evidence using LKB1-deficient macrophages and a drug-resistant mutant of SIK2 to establish that inhibition of SIKs induces IL-10 production. (FIG. 9A) Loss of CRTC3 phosphorylation in LKB1−/− MEFs. (FIG. 9B) Enhanced IL-10 production and reduced secretion of pro-inflammatory cytokines in LysM-Cre-LKB1flox/flox macrophages (n=3, mean±SD). (FIG. 9C) Sequence alignment of AMPK-related kinases. The ‘gatekeeper’ site is indicated using an asterisk. (FIG. 9D) […] curves of KIN112 against different SIK2 mutants. […]. (FIG. 9F) Induction of HA-SIK2 (WT and [T96Q]) expression in RAW264.7 macrophages. […]. RAW264.7 cells were induced to express HA-SIK2-WT or HA-SIK2[T96]. As a further control, cells transduced with the empty vector and which only express endogenous SIK isoforms were also used. […]. […]. IL-10^−/− mice on a C57BL/6 background were purchased from The Jackson Laboratory, Maine, USA. LKB1^flox/flox mice on a C57BL/6 background were a generous gift from Alan Ashworth and were crossed with LysM-Cre mice to delete LKB1 in macrophages. Mice were bred at the University of Dundee under specific pathogen-free conditions in accordance with European Union regulations. Water supply for IL-10^−/− mice was supplemented with antibiotics to prevent the development of colitis. Work was approved by local ethical review and was performed with a UK Home Office project license. […]

CREB = test: Immunoblotting of CREB phosphorylation in LPS-stimulated macrophages
Protocol: Bone-marrow derived macrophages were differentiated for 7 days in DMEM supplemented with 5 ng/ml recombinant M-CSF (R&D systems), 2 mM glutamine, 10% foetal calf serum, penicillin and streptomycin. […]
Cells were rinsed in ice-cold PBS and extracted in lysis buffer (50 mM Tris/HCl pH 7.4, 1 mM EDTA, 1 mM EGTA, 50 mM NaF, 5 mM sodium pyrophosphate, 10 mM sodium α-glycerol 1-phosphate, 1 mM dithiothreitol, 1 mM sodium orthovanadate, 0.27 M sucrose, 1% (v/v) Triton X-100, 1 μg/ml aprotinin, 1 μg/ml leupeptin and 1 mM phenylmethylsulphonyl fluoride). Cell extracts were clarified by centrifugation at 14000×g for 10 min at 4° C. and protein concentrations determined using the Bradford assay. To detect proteins in cell lysates, 20 μg of protein extract was separated by SDS-PAGE. After transfer to PVDF membranes, proteins were detected by immunoblotting and visualized by treating the blots with ECL (Amersham) followed by autoradiography. The antibody recognizing CREB phosphorylated at Ser133 was from Cell Signalling Technology and the one detecting α-tubulin was obtained from Sigma.

LKB1−/− cells = test: CREB-dependent gene transcription in IL-1 stimulated LKB1+/+ and LKB1−/− MEFs
IL-10−/− macrophages = test: Cytokine production in IL-10−/− macrophages; details: all TLR ligands examined other than LPS
Protocol: FIGS. 2A to 2G. […] As in A except that cells were stimulated for 2 h with LPS.
IL-10^−/− mice on a C57Bl/6 background were purchased from The Jackson Laboratory, Maine, USA. C57Bl/6, and IL-10^−/− mice were bred at the University of Dundee under specific pathogen-free conditions in accordance with European Union regulations. Work was approved by local ethical review and was performed with a UK Home Office project license.
Bone-marrow derived macrophages were differentiated for 7 days in DMEM supplemented with 5 ng/ml recombinant M-CSF (R&D systems), 2 mM glutamine, 10% foetal calf serum, penicillin and streptomycin.
Following stimulation with ligands, the cell culture medium was removed, clarified by centrifugation for 10 min at 14000×g and the concentration of TNFα, IL-6, IL-10, IL-12p40, and RANTES were measured using the Bio-Plex Pro Assay system from Bio-Rad. IFNβ was measured using an ELISA kit from R&D Systems according to the manufacturers' instructions.

Row | SMILES | IL-10, IL-12 and TNFα secretion in response to LPS (LKB1−/− macrophages) | phosphorylation of CREB at Ser133 induced by LPS (CREB) | CREB-dependent gene transcription (LKB1−/− cells; LKB1+/+ cells) | transcription of Nurr1 and Nurr77 (LKB1−/− cells; LKB1−/− cells) | secretion of pro-inflammatory cytokines (IL-10−/− macrophages)
1 | COc1ccc(N(C(=O)Nc2c(C)cccc2C)c2cc(Nc3ccc(N4CCN(C)CC4)cc3)ncn2)c(OC)c1 [HG-9-91-01, 1-(2,4-dimethoxyphenyl)-3-(2,6-dimethylphenyl)-1-(6-((4-(4-methylpiperazin-1-yl)phenyl)amino)pyrimidin-4-yl)urea] | unaffected |  |  |  | 
2 | O=C(NCCCNc1nc(Nc2cccc(CN3CCOCC3)c2)ncc1C1CC1)C1CCC1 [MRT67307] |  | little effect | enhanced | only be increased to a small extent | failed to suppress
